According to US8835472B2, “Compounds, pharmaceutical compositions and uses thereof” (Boehringer Ingelheim International GmbH, priority 2010, dated 2014):

Biological target: human ACC2 (Homo sapiens (Human), UniProt O00763)
Assay: ACC2 assay, spectrophotometric 384 well assay (NADH-linked, coupled lactate dehydrogenase/pyruvate kinase reaction)
Type: biochemical
Conditions: hACC2 construct lacking the 128 N-terminal amino acids; 25° C., 340 nm over 15 minutes
Outline: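 N-terminally truncated human ACC2 (lacking 128 residues) expressed in insect cells; coupled PK/LDH read-out of ADP as NADH loss at 340 nm, 15 min, 25 °C. Tris pH 7.5 with citrate and KHCO3; 200 μM acetyl-CoA, 500 μM ATP, 1% DMSO.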

Chain of human ACC2 (O00763 129-2458): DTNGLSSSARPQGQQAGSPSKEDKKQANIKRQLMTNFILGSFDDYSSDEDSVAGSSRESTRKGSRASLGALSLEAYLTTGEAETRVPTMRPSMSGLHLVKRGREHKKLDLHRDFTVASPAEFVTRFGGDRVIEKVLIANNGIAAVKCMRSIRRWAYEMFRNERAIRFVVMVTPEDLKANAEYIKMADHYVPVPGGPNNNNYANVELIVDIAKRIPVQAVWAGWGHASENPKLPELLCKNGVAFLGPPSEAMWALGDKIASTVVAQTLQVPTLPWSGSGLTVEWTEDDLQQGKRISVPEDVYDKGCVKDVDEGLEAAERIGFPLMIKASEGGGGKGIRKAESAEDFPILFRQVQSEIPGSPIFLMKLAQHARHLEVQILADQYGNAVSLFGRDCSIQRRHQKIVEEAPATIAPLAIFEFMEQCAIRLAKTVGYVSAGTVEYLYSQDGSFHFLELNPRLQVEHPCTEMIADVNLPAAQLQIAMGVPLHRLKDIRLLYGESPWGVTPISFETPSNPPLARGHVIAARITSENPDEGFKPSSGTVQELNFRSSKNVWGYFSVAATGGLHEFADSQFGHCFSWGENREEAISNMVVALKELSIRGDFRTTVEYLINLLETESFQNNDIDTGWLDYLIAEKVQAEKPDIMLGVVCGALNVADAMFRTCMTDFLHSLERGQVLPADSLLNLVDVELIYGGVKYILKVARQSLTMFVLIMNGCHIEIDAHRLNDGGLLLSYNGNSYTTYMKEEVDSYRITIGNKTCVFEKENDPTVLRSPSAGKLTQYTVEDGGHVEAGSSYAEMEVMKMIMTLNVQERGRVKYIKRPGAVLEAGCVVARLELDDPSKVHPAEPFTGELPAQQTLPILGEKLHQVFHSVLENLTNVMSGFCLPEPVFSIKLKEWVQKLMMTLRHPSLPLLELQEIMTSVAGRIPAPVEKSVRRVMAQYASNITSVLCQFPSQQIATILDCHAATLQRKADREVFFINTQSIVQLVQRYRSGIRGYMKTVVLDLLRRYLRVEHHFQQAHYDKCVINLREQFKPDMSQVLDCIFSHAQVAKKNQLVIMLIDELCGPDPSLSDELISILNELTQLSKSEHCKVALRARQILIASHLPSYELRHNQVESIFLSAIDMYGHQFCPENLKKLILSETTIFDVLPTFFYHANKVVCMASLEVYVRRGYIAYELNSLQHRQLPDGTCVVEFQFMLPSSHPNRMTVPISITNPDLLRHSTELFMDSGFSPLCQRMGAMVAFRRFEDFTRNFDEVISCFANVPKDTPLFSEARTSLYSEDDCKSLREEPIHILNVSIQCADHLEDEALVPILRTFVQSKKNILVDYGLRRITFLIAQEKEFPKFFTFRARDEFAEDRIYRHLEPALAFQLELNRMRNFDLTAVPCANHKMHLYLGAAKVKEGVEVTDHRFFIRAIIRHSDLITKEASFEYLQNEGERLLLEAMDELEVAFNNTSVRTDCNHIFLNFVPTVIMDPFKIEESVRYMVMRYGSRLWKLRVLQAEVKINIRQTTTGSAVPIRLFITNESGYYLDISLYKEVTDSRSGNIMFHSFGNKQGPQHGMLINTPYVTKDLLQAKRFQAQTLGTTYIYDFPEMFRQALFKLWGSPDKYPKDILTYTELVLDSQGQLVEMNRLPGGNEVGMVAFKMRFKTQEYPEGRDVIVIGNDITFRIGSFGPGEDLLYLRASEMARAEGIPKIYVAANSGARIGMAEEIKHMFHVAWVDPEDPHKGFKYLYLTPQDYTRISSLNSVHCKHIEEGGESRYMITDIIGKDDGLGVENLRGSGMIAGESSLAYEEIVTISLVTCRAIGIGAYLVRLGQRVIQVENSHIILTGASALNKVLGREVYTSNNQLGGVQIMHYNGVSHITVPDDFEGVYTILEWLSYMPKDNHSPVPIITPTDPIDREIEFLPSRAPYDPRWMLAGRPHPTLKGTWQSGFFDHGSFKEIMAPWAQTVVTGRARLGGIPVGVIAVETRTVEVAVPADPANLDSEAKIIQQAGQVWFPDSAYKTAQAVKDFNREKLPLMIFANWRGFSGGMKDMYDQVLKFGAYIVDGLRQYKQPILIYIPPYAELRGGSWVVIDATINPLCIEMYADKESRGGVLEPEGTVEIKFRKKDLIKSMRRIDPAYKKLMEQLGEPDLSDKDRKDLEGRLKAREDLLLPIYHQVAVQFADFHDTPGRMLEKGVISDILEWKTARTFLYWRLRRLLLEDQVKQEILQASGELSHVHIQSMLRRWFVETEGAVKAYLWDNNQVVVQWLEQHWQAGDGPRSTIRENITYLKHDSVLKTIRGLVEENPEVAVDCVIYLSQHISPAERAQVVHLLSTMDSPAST

## CC(=O)NC(C)Cc1ccc(C#Cc2ccc(C(=O)N(C)Cc3ccccc3)cc2)cc1 (centres unmarked) [Example 8.9]
  IC50: 3700 nM

## CC(=O)NC(C)Cc1ccc(C#Cc2cnc(NC(C)C)nc2)cc1 (centres unmarked) [Example 13.4]
  IC50: 170 nM

## CC(=O)NC(C)Cc1ccc(C#Cc2ccc(OCCC3CC3)cc2)cc1 (centres unmarked) [Example 9.21]
  IC50: 60 nM

## COCCN(C)c1ncc(C#Cc2ccc(CC(C)NC(C)=O)cc2)cn1 (centres unmarked) [Example 13.1, N-(1-(4-((2-((2-Methoxyethyl)(methyl)amino)pyrimidin-5-yl)ethynyl)phenyl)propan-2-yl)acetamide]
  IC50: 3200 nM

## CC(=O)NC(C)Cc1ccc(C#Cc2ccc(C(C)C)cc2)cc1 (centres unmarked) [Example 1.22]
  IC50: 290 nM

## CC(=O)NC(C)c1ccc(C#Cc2ccc(OC(C)(C)C)cc2)cc1 (centres unmarked) [Example 2.44]
  IC50: 420 nM

## CCC(CC)Oc1ccc(C#Cc2ccc(CC(C)NC(=O)C3CC3)cc2)cc1 (centres unmarked) [Example 14.33]
  IC50: 1600 nM

## CCCOc1cc(C#Cc2ccc([C@@H](C)NC(C)=O)cc2)ccn1 [Example 14.22]
  IC50: 13400 nM

## CCOc1ccc(C#Cc2ccc(CC(C)NC(=O)c3ncn[nH]3)cc2)cc1 (centres unmarked) [Example 4.60]
  IC50: 24700 nM

## CCCOc1ccc(C#Cc2ccc(CC(C)NC(C)=O)cc2)c(C(N)=O)c1 (centres unmarked) [Example 2.90]
  IC50: 5200 nM

## CC(=O)NCC(C)(C)c1ccc(C#Cc2ccc(OCC3CC3)cc2)cc1 [Example 2.37]
  IC50: 100 nM

## CC(C)Nc1ncc(C#Cc2ccc(CC(C)NC(=O)N(C)C)cc2)cn1 (centres unmarked) [Example 13.24]
  IC50: 200 nM

## CC(=O)N[C@@H](C)Cc1ccc(C#Cc2ccc(OCC(C)C)cc2)cc1 [Example 23.3]
  IC50: 400 nM

## CCOc1ccc(C#Cc2ccc(C(C)NC(=O)c3ccccn3)cc2)cc1 (centres unmarked) [Example 4.47]
  IC50: 2700 nM

## CCOc1ccc(C#Cc2ccc(CC(C)NC(=O)c3nc[nH]n3)cc2)cc1 (centres unmarked) [Example 4.73]
  IC50: 19200 nM

## CCOc1ccc(C#Cc2ccc(CC(C)NC(=O)C3CC3C)cc2)cc1 (centres unmarked) [Example 4.35]
  IC50: 380 nM

## CC(=O)NC(C)Cc1ccc(C#Cc2ccc(C)cc2Cl)cc1 (centres unmarked) [Example 3.2]
  IC50: 270 nM

## COc1ccc(-c2cnc(C#Cc3ccc(CC(C)NC(C)=O)cc3)cn2)cc1 (centres unmarked) [Example 1.13]
  IC50: 1100 nM

## CCOc1cc(C#Cc2ccc(CC(C)NC(=O)N(C)C)cc2)ccn1 (centres unmarked) [Example 20.2]
  IC50: 600 nM

## CCc1ccc(C#Cc2ccc(CC(C)NC(C)=O)cc2)cc1 (centres unmarked) [Example 1.21]
  IC50: 400 nM

## CC(=O)NC(C)Cc1ccc(C#Cc2ccc(OC3CCCOC3)cc2)cc1 (centres unmarked) [Example 9.29]
  IC50: 190 nM

## CCOc1ccc(C#Cc2ccc(C(C)NC(=O)C(C)OCC(F)(F)F)cc2)cc1 (centres unmarked) [Example 4.46]
  IC50: 8500 nM

## CCOc1ccc(C#Cc2ccc(CC(C)NC(=O)C(C)O)cc2)cc1 (centres unmarked) [Example 4.5]
  IC50: 1500 nM

## CC(=O)NC(C)Cc1ccc(C#Cc2ccc(OCc3ccoc3)cc2)cc1 (centres unmarked) [Example 9.26]
  IC50: 250 nM

## CC(Cc1ccc(C#Cc2cnc(NC3CC3)nc2)cc1)NC(=O)C1CC1 (centres unmarked) [Example 13.48]
  IC50: 1300 nM

## CC(=O)NC(C)Cc1ccc(C#Cc2ccc(C(=O)N(C)C3CCCC3)cc2)cc1 (centres unmarked) [Example 8.13]
  IC50: 2400 nM

## CCC(C)Oc1ccc(C#Cc2ccc(CC(C)NC(=O)C3CC3)cc2)cc1 (centres unmarked) [Example 14.46]
  IC50: 210 nM

## CC(=O)NC(C)Cc1ccc(C#Cc2ccnc(N3CCOCC3)n2)cc1 (centres unmarked) [Example 11.42]
  IC50: 620 nM

## CC(=O)NC(C)Cc1ccc(C#Cc2cccc(C(=O)N3CCc4ccccc4C3)c2)cc1 (centres unmarked) [Example 8.51]
  IC50: 30000 nM

## COC(=O)NC(C)Cc1ccc(C#Cc2cnc(NCc3ccncc3)nc2)cc1 (centres unmarked) [Example 13.28]
  IC50: 3400 nM

## CC(=O)NC(C)Cc1ccc(C#Cc2ccc(OCc3cccnc3)cc2)cc1 (centres unmarked) [Example 9.42]
  IC50: 630 nM

## CC(=O)N[C@@H](C)Cc1ccc(C#Cc2ccc(OC(C)C)cc2)cc1 [Example 23.2]
  IC50: 130 nM

## CC(=O)NC(C)Cc1ccc(C#Cc2ccc(C(=O)N3Cc4ccccc4C3)cc2)cc1 (centres unmarked) [Example 8.12]
  IC50: 1500 nM

## CC(=O)NC(C)Cc1ccc(C#Cc2ccc(Oc3cncnc3)cc2)cc1 (centres unmarked) [Example 10.1, N-(1-(4-((4-(Pyrimidin-5-yloxy)phenyl)ethynyl)phenyl)propan-2-yl)acetamide]
  IC50: 190 nM

## CCCNc1nccc(C#Cc2ccc(CC(C)NC(C)=O)cc2)n1 (centres unmarked) [Example 11.3]
  IC50: 2300 nM

## CC(=O)NC(C)Cc1ccc(C#Cc2ccnc(N(C)C3CCC(O)CC3)n2)cc1 (centres unmarked) [Example 11.9]
  IC50: 4000 nM

## CC(=O)NC(C)Cc1ccc(C#Cc2ccc3c(c2)CCC3=O)cc1 (centres unmarked) [Example 2.76]
  IC50: 5800 nM

## CCCOc1ccc(C#Cc2ccc(C(C)(C)NC(C)=O)cc2)cc1 [Example 2.41]
  IC50: 25000 nM

## CC(=O)NC(C)Cc1ccc(C#Cc2ccnc(OC3CCCC3)n2)cc1 (centres unmarked) [Example 12.2]
  IC50: 4300 nM

## CC(Cc1ccc(C#Cc2cccc(OC(C)C)c2)cc1)NC(=O)C1CC1 (centres unmarked) [Example 14.32]
  IC50: 710 nM

## CCCOc1ccc(C#Cc2ccc(CC(C)NC(C)=O)cc2)c(C)c1 (centres unmarked) [Example 2.95]
  IC50: 110 nM

## CCN(CC)c1ncc(C#Cc2ccc(CC(C)NC(C)=O)cc2)cn1 (centres unmarked) [Example 13.23]
  IC50: 1200 nM

## CNC(=O)c1ccc(C#Cc2ccc(CC(C)NC(C)=O)cc2)cc1 (centres unmarked) [Example 8.44]
  IC50: 22100 nM

## CC(=O)NC(C)Cc1ccc(C#Cc2ccc(OCC3CCOCC3)cc2)cc1 (centres unmarked) [Example 9.31]
  IC50: 550 nM

## COc1ncc(C#Cc2ccc(C(C)CNC(=O)c3cn[nH]c3)cc2)cn1 (centres unmarked) [Example 4.80]
  IC50: 7700 nM

## CC(CNC(=O)c1cn[nH]c1)c1ccc(C#Cc2cnc(OC3CCC3)nc2)cc1 (centres unmarked) [Example 4.77]
  IC50: 460 nM

## CC(=O)NC(C)Cc1ccc(C#Cc2cnc(N3CC4CCCC4C3)nc2)cc1 (centres unmarked) [Example 13.18]
  IC50: 130 nM

## CC(=O)NC(C)Cc1ccc(C#Cc2cnc(N3CCC4(CCC4)C3)nc2)cc1 (centres unmarked) [Example 13.71]
  IC50: 210 nM

## CC(=O)NC(C)Cc1ccc(C#Cc2ccc(C(=O)NCc3cccnc3)cc2)cc1 (centres unmarked) [Example 8.3]
  IC50: 13000 nM

## COCCNC(=O)c1cccc(C#Cc2ccc(CC(C)NC(C)=O)cc2)c1 (centres unmarked) [Example 8.27]
  IC50: 11100 nM

## CC(=O)NC(C)Cc1ccc(C#Cc2cccc(C(=O)NCC(F)(F)F)c2)cc1 (centres unmarked) [Example 8.18]
  IC50: 7700 nM

## CC(=O)NC(C)Cc1ccc(C#Cc2cnc(OCCF)nc2)cc1 (centres unmarked) [Example 12.31]
  IC50: 1100 nM

## CC(=O)NC(C)Cc1ccc(C#Cc2cnc(N[C@H]3CCc4ccccc43)nc2)cc1 (some centres unmarked) [Example 13.62]
  IC50: 330 nM

## CCC(C)NC(=O)c1cccc(C#Cc2ccc(CC(C)NC(C)=O)cc2)c1 (centres unmarked) [Example 8.35]
  IC50: 2400 nM

## CCC(CC)Nc1ncc(C#Cc2ccc(CC(C)NC(C)=O)cc2)cn1 (centres unmarked) [Example 13.81]
  IC50: 330 nM

## CCCOc1cc(C#Cc2ccc(CCC(C)NC(C)=O)cc2)ccn1 (centres unmarked) [Example 14.16]
  IC50: 120 nM

## CC(=O)NC(C)Cc1ccc(C#Cc2ccc(C(F)(F)F)cc2Cl)cc1 (centres unmarked) [Example 2.3]
  IC50: 1400 nM

## CC(=O)NC(C)Cc1ccc(C#Cc2ccnc(Oc3cncnc3)c2)cc1 (centres unmarked) [Example 2.91]
  IC50: 400 nM

## CC(=O)NC(C)Cc1ccc(C#Cc2cnc(OCC(C)C)nc2)cc1 (centres unmarked) [Example 12.11]
  IC50: 670 nM

## CCOc1ccc(C#Cc2ccc(CC(C)NC(=O)C(=O)N(C)C)cc2)cc1 (centres unmarked) [Example 4.61]
  IC50: 10100 nM

## CC(=O)NC(C)Cc1ccc(C#Cc2ccc(OCC3CC3(F)F)cc2)cc1 (centres unmarked) [Example 9.40]
  IC50: 50 nM

## CCOc1ccc(C#Cc2ccc(CC(C)NC(C)=O)cc2)nn1 (centres unmarked) [Example 2.29]
  IC50: 1600 nM

## CC(=O)NC(C)Cc1ccc(C#Cc2cnn(C)c2)cc1 (centres unmarked) [Example 2.107]
  IC50: 4900 nM

## CCOc1ncc(C#Cc2ccc([C@H](C)NC(=O)C3CC3)cc2)cn1 [Example 12.66]
  IC50: 2100 nM

## CC(=O)NC(C)Cc1ccc(C#Cc2ccc(OCCC(C)C)nn2)cc1 (centres unmarked) [Example 14.21]
  IC50: 3100 nM

## CC(=O)NC(C)Cc1ccc(C#Cc2cnc(OCc3cncs3)nc2)cc1 (centres unmarked) [Example 12.36]
  IC50: 1500 nM

## CC(=O)NC(C)Cc1ccc(C#Cc2cccc(C(=O)NCC3CC3)c2)cc1 (centres unmarked) [Example 8.28]
  IC50: 5000 nM

## CCOc1ccc(C#Cc2ccc(CC(C)NC(=O)CC#N)cc2)cc1 (centres unmarked) [Example 4.9]
  IC50: 400 nM

## CC(=O)NC(C)Cc1ccc(C#Cc2ccnc(N(C)CC3CC3)n2)cc1 (centres unmarked) [Example 11.21]
  IC50: 250 nM

## COc1ccccc1Oc1ncc(C#Cc2ccc(CC(C)NC(C)=O)cc2)cn1 (centres unmarked) [Example 12.46]
  IC50: 1000 nM

## CC(=O)NC(C)Cc1ccc(C#Cc2cccc(OCCN3CCCCC3)c2)cc1 (centres unmarked) [Example 9.9]
  IC50: 9200 nM

## COC(=O)NC(C)Cc1ccc(C#Cc2cnc(N3CCC3)nc2)cc1 (centres unmarked) [Example 13.40]
  IC50: 2200 nM

## CCOc1nccc(C#Cc2ccc(CC(C)NC(C)=O)cc2)n1 (centres unmarked) [Example 12.1, N-(1-(4-((2-ethoxypyrimidin-4-yl)ethynyl)phenyl)propan-2-yl)acetamide]
  IC50: 8500 nM

## CCCCOc1ccc(C#Cc2ccc(CC(C)NC(C)=O)cc2)cc1 (centres unmarked) [Example 9.3]
  IC50: 90 nM

## CCCOc1cc(C#Cc2ccc(C(C)NC(C)=O)cc2)ccn1 (centres unmarked) [Example 14.3]
  IC50: 450 nM

## CC(=O)NC(C)Cc1ccc(C#Cc2ccc(C)cc2)cc1 (centres unmarked) [Example 1.2]
  IC50: 810 nM

## C[C@H](NC(=O)C1CC1)c1ccc(C#Cc2cnc(Oc3ccccc3)nc2)cc1 [Example 12.67]
  IC50: 3900 nM

## CC(=O)NC(C)Cc1ccc(C#Cc2ccc(Cl)cc2)cc1 (centres unmarked) [Example 1.1, N-(1-(4-((4-Chlorophenyl)ethynyl)phenyl)propan-2-yl)acetamide]
  IC50: 530 nM

## CC(=O)NC(C)Cc1ccc(C#Cc2ccnc(N(C)C(C)C)n2)cc1 (centres unmarked) [Example 11.8]
  IC50: 750 nM

## CC(=O)NC(C)Cc1ccc(C#Cc2ccc(OCCN3CCOCC3)cc2)cc1 (centres unmarked) [Example 9.6]
  IC50: 9400 nM

## CC(Cc1ccc(C#Cc2ccc(Oc3cncnc3)nc2)cc1)NC(=O)C1CC1 (centres unmarked) [Example 14.27]
  IC50: 3700 nM

## COC(=O)NC(C)Cc1ccc(C#Cc2cnc(NCCF)nc2)cc1 (centres unmarked) [Example 13.42]
  IC50: 4500 nM

## CC(=O)NC(C)Cc1ccc(C#Cc2ccc(C(=O)N3CCC3)cc2)cc1 (centres unmarked) [Example 8.15]
  IC50: 2200 nM
